# Data from patent publication US8642656B2, “Calixarene-based peptide conformation mimetics, methods of use, and methods of making” (priority 2004, dated 2014).
# System: HUVEC
# Experiment: EC migration, wound healing assay
# Assay type: cell-based, human
# Conditions: 25 μM
# Experimental: EC migration was measured in the wound healing assay. HUVEC were cultured in triplicate on a 1-mg/ml fibronectin coat in a 24-well tissue culture plate. Cells were grown for 3 days until confluence. When confluent, a wound was made in the well, using a blunt glass pipette. The medium was replaced with medium containing 10 ng/ml bFGF with or without 25 μM compound and at 0, 2, 4, 6, and 8 hours, the wound width was measured at four different predefined places. Photographs were made using an inverted microscope and a Contax 167 MT 35 mm camera.
substance,measurement,value
"5,11,17,23-Tetra-tert-butyl-25,27-bis(2-guanidinoethoxy)-26,28-dihydroxy calix[4]arene trifluoroacetic acid salt [Compound 27]","effect on EC migration, wound assay (in words)",as effective as βpep-25 and more effective than 40
